In patent US20110130384A1, “AMIDE COMPOUND” (TAKEDA PHARMACEUTICAL COMPANY LIMITED, priority 2008, published 2011):

biological target: T1, human GPR52 (Homo sapiens, UniProt Q9Y2T5); experiment: Increase of intracellular cAMP concentration in human GPR52-expressing CHO cell (AlphaScreen cAMP assay); format: cell-based; details: 1 μM test compound, human GPR52-expressing CHO(dhfr-) cells, 37° C. for 30 min; intracellular cAMP with 1 μM Reference Example 124 = 100%, DMSO = 0%
T1 construct: expressed in transfected cells; host or cells: CHO(dhfr-) cells
T1 sequence (Q9Y2T5 whole entry): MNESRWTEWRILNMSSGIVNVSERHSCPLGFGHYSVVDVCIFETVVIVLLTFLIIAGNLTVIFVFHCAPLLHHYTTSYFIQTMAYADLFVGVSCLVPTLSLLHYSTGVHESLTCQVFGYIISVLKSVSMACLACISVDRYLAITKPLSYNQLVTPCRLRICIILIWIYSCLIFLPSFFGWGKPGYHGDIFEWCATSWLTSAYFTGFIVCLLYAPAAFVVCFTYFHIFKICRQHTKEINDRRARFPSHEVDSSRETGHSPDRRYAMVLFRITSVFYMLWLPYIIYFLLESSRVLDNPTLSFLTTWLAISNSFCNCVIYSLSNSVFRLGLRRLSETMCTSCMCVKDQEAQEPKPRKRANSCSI
Description: Increase of Intracellular cAMP Concentration in Human GPR52-Expressing CHO Cell
Using OptiPlate-384 (PerkinElmer Inc.), 1×10^4 human GPR52-expressing CHO(dhfr-) cells were incubated together with 1 μM of a test compound in an assay buffer (30 μL, HBSS (containing Ca^2+ and Mg^2+), 0.5% BSA, 100 μm IBMX, 100 μm Ro20-1724, 5 mM HEPES (pH 7.55)) at 37° C. for 30 min. Thereafter, according to the protocol of AlphaScreen cAMP Assay Kit (PerkinElmer Inc.), the intracellular cAMP concentration was measured by EnVision (PerkinElmer Inc.). The GPR52 agonist activity was calculated, assuming the intracellular cAMP concentration in the presence of 1 μM 3-(6-(2-(3,4-dimethoxyphenyl)ethoxy)pyridin-2-yl)-N-(2-pyrrolidin-1-ylethyl)benzamide (Reference Example 124) to be 100% and assuming the intracellular cAMP concentration when DMSO was added instead of the test compound to be 0%.

GPR52 agonist activity (%) | SMILES
66 | N#CCCNC(=O)c1cccc(-c2ccc3c(c2)C(c2ccc(Cl)cc2Cl)CC3)c1 (single isomer, unassigned; (+)) [Example 63, (+)-N-(2-cyanoethyl)-3-[3-(2,4-dichlorophenyl)-2,3-dihydro-1H-inden-5-yl]benzamide]
81 | N#CCCNC(=O)c1cccc(-c2ccc3c(c2)C(c2ccc(Cl)cc2Cl)CC3)c1 (single isomer, unassigned; (-)) [Example 62, (−)-N-(2-cyanoethyl)-3-[3-(2,4-dichlorophenyl)-2,3-dihydro-1H-inden-5-yl]benzamide]
87 | CN(C)CCNC(=O)c1cccc(-c2ccc3c(c2)N(c2ccc(Cl)cc2Cl)CC3)c1 [Example 1, 3-[1-(2,4-dichlorophenyl)-2,3-dihydro-1H-indol-6-yl]-N-[2-(dimethylamino)ethyl]benzamide]
69 | N#CCCNC(=O)c1cccc(-c2ccc3c(c2)N(c2ccc(Cl)cc2Cl)CC3)c1 [Example 2, N-(2-cyanoethyl)-3-[1-(2,4-dichlorophenyl)-2,3-dihydro-1H-indol-6-yl]benzamide]
71 | O=C(NCCO)c1cccc(-c2ccc3c(c2)N(c2ccc(Cl)cc2Cl)CC3)c1 [Example 3, 3-[1-(2,4-dichlorophenyl)-2,3-dihydro-1H-indol-6-yl]-N-(2-hydroxyethyl)benzamide]
75 | N#CCCNC(=O)c1cccc(-c2ccc3c(c2)N(c2cc(Cl)ccc2Cl)CC3)c1 [Example 4, N-(2-cyanoethyl)-3-[1-(2,5-dichlorophenyl)-2,3-dihydro-1H-indol-6-yl]benzamide]
75 | O=C(NCCO)c1cccc(-c2ccc3c(c2)N(c2cc(Cl)ccc2Cl)CC3)c1 [Example 5, 3-[1-(2,5-dichlorophenyl)-2,3-dihydro-1H-indol-6-yl]-N-(2-hydroxyethyl)benzamide]
59 | N#CCCNC(=O)c1cccc(-c2ccc3c(c2)N(c2ccc(Cl)c(Cl)c2)CC3)c1 [Example 6, N-(2-cyanoethyl)-3-[1-(3,4-dichlorophenyl)-2,3-dihydro-1H-indol-6-yl]benzamide]
67 | O=C(NCCO)c1cccc(-c2ccc3c(c2)N(c2ccc(Cl)c(Cl)c2)CC3)c1 [Example 7, 3-[1-(3,4-dichlorophenyl)-2,3-dihydro-1H-indol-6-yl]-N-(2-hydroxyethyl)benzamide]
59 | O=C(NCCO)c1cccc(-c2ccc3c(c2)N(c2cc(Cl)cc(Cl)c2)CC3)c1 [Example 9, 3-[1-(3,5-dichlorophenyl)-2,3-dihydro-1H-indol-6-yl]-N-(2-hydroxyethyl)benzamide]
65 | N#CCCNC(=O)c1cccc(-c2ccc3c(c2)N(c2cccc(Cl)c2Cl)CC3)c1 [Example 10, N-(2-cyanoethyl)-3-[1-(2,3-dichlorophenyl)-2,3-dihydro-1H-indol-6-yl]benzamide]
74 | O=C(NCCO)c1cccc(-c2ccc3c(c2)N(c2cccc(Cl)c2Cl)CC3)c1 [Example 11, 3-[1-(2,3-dichlorophenyl)-2,3-dihydro-1H-indol-6-yl]-N-(2-hydroxyethyl)benzamide]
89 | CN(C)CCNC(=O)c1cccc(-c2ccc3c(c2)N(Cc2ccc(Cl)cc2Cl)CC3)c1 [Example 12, 3-[1-(2,4-dichlorobenzyl)-2,3-dihydro-1H-indol-6-yl]-N-[2-(dimethylamino)ethyl]benzamide]
60 | N#CCCNC(=O)c1cccc(-c2ccc3c(c2)N(Cc2ccc(Cl)cc2Cl)CC3)c1 [Example 13, N-(2-cyanoethyl)-3-[1-(2,4-dichlorobenzyl)-2,3-dihydro-1H-indol-6-yl]benzamide]
77 | N#CCCNC(=O)c1cccc(-c2ccc3c(c2)N(Cc2cc(Cl)cc(Cl)c2)CC3)c1 [Example 15, N-(2-cyanoethyl)-3-[1-(3,5-dichlorobenzyl)-2,3-dihydro-1H-indol-6-yl]benzamide]
